Source: ChEMBL document CHEMBL1201862, “PubChem BioAssay data set” (2004)
The source made the active and inactive calls.

Assays:
Protein Rev = Protein Rev (Human immunodeficiency virus type 1 group M subtype B (isolate WMJ22)(HIV-1), UniProt P05866); assay: HIV-1 Rev-RRE RNA binding disruptors, dose response, biochemical, protein-RNA interaction (AID 842); design: species or system Human immunodeficiency virus 1
Streptokinase A = target: T1, Streptokinase A (Streptococcus pyogenes serotype M1, UniProt P10520); assay: S. pyogenes streptokinase expression inhibitors, potency, dose response, plasminogen activation absorbance, OD405 (AID 1914); type: functional, Streptococcus pyogenes M1 GAS;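 also: secreted streptokinase activity via plasminogen activation per viability signal from cell pellet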
T1 sequence (P10520 whole entry): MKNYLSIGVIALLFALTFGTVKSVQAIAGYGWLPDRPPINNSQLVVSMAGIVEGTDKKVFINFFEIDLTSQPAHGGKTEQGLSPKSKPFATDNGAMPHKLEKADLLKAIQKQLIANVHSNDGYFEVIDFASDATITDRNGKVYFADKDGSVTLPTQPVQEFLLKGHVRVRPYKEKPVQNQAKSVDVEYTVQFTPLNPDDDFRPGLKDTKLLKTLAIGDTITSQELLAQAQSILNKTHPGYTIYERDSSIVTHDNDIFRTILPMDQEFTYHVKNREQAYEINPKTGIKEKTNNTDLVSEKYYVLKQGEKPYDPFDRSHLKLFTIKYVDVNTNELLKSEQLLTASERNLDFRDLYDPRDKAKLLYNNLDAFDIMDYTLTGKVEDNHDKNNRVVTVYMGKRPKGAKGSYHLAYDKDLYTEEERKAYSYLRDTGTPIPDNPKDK

Streptococcus [1] = assay: Group A Streptococcus viability loss, dose response, counter-screen for streptokinase expression inhibitor project, luminescence, BacTiterGlo (AID 1915); type: functional, organism-based;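 also: potency for reduction of bacterial viability or growth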
Streptococcus [2] = assay: Luminescence Microorganism-Based Dose Response Follow up to Identify Compounds Cytotoxic to Streptococcus. [Related pubchem assays: 1677 (Project Summary), 1915, 1914, 1902 (Retest at Dose), 1900 (Counter Screen), 1662 (Primary HTS)]; type: functional, organism-based
[3] = tested on: Streptococcus sp. 'group A'; assay: growth inhibition of control SK(-) GAS strain, dose response, counter-screen for streptokinase expression inhibitor project, luminescence, kanamycin, BacTiterGlo, confirmation (AID 1900); type: functional, organism-based
[4] = target: Dual specificity protein phosphatase 3 (Homo sapiens, UniProt P51452); assay: VHR1 inhibitor Ki determination, SAR follow-up, biochemical, colorimetric (AID 2004)
[5] = target: Peroxisome proliferator-activated receptor gamma/Nuclear receptor corepressor 2 (Homo sapiens, UniProt P37231+Q9Y618); type: functional
[6] = target: Photoreceptor-specific nuclear receptor (Homo sapiens, UniProt Q9Y5X4); type: functional;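 also: potency for compounds that break the NR2E3 corepressor complex and count as activators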
ORF 73 = target: T2, ORF 73 (Human herpesvirus 8, UniProt O40947); assay: inhibitors of C-LANA binding to LBS DNA, dose response, biochemical, fluorescence polarization, cherry-picked samples (AID 504725); design: species or system Human gammaherpesvirus 8;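 also: fluorescence polarization of a labeled DNA duplex reporting LANA DNA binding; potency is for inhibitors that block LANA binding to the DNA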
T2 sequence (O40947 whole entry): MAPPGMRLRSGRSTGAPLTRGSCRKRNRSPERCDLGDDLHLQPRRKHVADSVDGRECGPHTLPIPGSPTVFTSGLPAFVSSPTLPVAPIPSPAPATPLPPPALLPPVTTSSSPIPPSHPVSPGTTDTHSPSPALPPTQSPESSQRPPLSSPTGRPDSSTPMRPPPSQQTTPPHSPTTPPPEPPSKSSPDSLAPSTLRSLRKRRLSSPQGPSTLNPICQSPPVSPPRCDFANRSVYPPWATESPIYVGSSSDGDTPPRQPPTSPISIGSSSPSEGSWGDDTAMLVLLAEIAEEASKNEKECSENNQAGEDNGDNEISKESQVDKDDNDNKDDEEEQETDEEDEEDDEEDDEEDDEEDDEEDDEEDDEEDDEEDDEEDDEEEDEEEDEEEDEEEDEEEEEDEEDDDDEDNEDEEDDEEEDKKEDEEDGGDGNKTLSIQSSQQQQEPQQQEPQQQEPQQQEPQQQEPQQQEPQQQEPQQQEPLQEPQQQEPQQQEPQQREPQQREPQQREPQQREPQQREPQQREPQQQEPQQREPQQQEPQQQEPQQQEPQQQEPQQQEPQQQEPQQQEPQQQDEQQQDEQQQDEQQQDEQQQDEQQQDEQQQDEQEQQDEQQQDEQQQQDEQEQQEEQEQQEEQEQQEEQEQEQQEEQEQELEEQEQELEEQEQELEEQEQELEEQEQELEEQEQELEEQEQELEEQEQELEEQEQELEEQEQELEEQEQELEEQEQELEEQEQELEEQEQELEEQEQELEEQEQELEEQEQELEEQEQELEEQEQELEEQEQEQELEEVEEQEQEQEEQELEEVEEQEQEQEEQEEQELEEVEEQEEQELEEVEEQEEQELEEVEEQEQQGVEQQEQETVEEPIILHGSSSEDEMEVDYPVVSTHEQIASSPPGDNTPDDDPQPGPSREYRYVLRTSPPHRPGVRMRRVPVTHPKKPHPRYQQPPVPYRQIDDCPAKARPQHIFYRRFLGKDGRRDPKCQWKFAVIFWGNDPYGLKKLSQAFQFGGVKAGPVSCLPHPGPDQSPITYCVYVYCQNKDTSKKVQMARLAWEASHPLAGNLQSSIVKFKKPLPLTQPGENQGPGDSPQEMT

Caspase-6 = target: T3, Caspase-6 (Homo sapiens, UniProt P55212); assay: human caspase-6 inhibitors, dose response, biochemical, VEID-R110 fluorescence, cherry-pick (AID 720632)
T3 sequence (P55212 whole entry): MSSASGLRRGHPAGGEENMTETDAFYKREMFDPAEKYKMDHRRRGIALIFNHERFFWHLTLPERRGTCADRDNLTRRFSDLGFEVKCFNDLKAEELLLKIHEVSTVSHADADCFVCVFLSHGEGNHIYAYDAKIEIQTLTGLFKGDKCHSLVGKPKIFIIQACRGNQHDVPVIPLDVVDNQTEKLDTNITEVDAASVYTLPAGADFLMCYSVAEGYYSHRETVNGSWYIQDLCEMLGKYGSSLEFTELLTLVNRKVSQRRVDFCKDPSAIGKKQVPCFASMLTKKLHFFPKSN

CHO = assay: cytotoxicity in TLR9-MyD88 CHO cells, dose response, cytotoxicity control for TLR9-MyD88 binding inhibitor project, cell-based, luminescence (AID 588339); type: functional, hamster; conditions: Cricetulus griseus;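 also: CHO cells stably coexpressing TLR9 and MyD88 fusions from primary screen; compound exposure lasted 48 hours before viability readout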
HeLa = assay: HeLa cell cytotoxicity, dose response, cytotoxicity control, 24 h, cherry-picked samples (AID 504726); type: functional, cell-based; conditions: Homo sapiens;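 also: potency for cytotoxicity as loss of luminescence signal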
[7] = control 3'UTR Renilla luciferase suppression, dose response, counter-screen for Shn3 inhibitor project, cell-based, Clone20-Shn3RL, cherry-picked (AID 624133); type: functional
[8] = luciferase reporter signal reduction – luminescence, H4-C neuroglioblastoma cells, dose response (AID 2458); type: functional, cell-based;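 also: H4 neuroglioblastoma cells stably carrying a luciferase reporter gene fusion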
[9] = inhibitors of SNCA 5'UTR-driven translation, confirmation, luminescence, H4 neuroglioblastoma cells, dose confirmation (AID 2454); type: functional, cell-based;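 also: H4 neuroglioblastoma cells carrying an alpha-synuclein 5'UTR luciferase reporter; potency for inhibition of the luciferase signal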
[10] = inhibitors of SNCA 5'UTR-driven reporter translation, confirmation, H4 neuroglioma cells, luminescence (AID 1988); type: functional, cell-based
[11] = Luminescence-based dose response cell-based high throughput screening assay for cytotoxic compounds using the IEC-6 intestinal epithelial cell line. [Related pubchem assays: 1858 (Summary AID.), 1825 (Counterscreen.), 1907 (Confirmation screen.)]; type: functional
[12] = Luminescence Cell-Based Dose Response HTS to Identify Inhibitors of 5'UTR Stem-Loop Driven Prion Protein mRNA Translation in H4 Neuroglioblastoma Cells. [Related pubchem assays: 1827 (Project Summary), 1813 (Primary HTS)]; type: functional
[13] = Shn3 3'UTR reporter inhibitors, dose response, cell-based, Clone20 osteoblasts, firefly luciferase, cherry-picked (AID 624132); type: functional;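 also: firefly luciferase luminescence from reporter carrying the Shn3 3'UTR in osteoblasts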
cells = type: functional, cell-based
[14] = target: Scavenger receptor class B member 1 (Mus musculus, UniProt Q61009); assay: inhibitors of SR-BI mediated HDL lipid uptake, dose response, ldlA[mSR-BI] cells, fluorescence, cherry pick (AID 493194); type: functional, cell-based;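 also: cellular uptake of fluorescent DiI-labeled HDL measured as cell fluorescence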
[15] = cytotoxicity in HEK-293T cells, dose response, cytotoxicity control for TCR NF-kB inhibitor project, luminescence, T-cell screen hits (AID 489026); type: functional, cell-based;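 also: cells exposed to compound about 14 hours before the viability readout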
[16] = target: Lysosomal acid glucosylceramidase (Homo sapiens, UniProt P04062); assay: Dose response cell-based high throughput screening assay to identify enhancers of beta-glucosidase activity. [Related pubchem assays: 784 ]; type: functional
[17] = target: Melanin-concentrating hormone receptor 1 (Homo sapiens, UniProt Q99705); assay: Fluorescence-based counterscreen for antagonists of the G-protein coupled receptor 7 (GPR7): cell-based high throughput dose response assay to identify antagonists of the melanin-concentrating hormone receptor 1 (MCHR1).; type: functional
[18] = target: T4, Neuropeptides B/W receptor type 1 (Homo sapiens, UniProt P48145); assay: Fluorescence-based dose response cell-based high throughput screening assay to identify antagonists of the G-protein coupled receptor 7 (GPR7). [Related pubchem assays: 1952 (Screening assay (GPR7 antagonists).), 1880 (Summary AID.)]; type: functional
T4 sequence (P48145 whole entry): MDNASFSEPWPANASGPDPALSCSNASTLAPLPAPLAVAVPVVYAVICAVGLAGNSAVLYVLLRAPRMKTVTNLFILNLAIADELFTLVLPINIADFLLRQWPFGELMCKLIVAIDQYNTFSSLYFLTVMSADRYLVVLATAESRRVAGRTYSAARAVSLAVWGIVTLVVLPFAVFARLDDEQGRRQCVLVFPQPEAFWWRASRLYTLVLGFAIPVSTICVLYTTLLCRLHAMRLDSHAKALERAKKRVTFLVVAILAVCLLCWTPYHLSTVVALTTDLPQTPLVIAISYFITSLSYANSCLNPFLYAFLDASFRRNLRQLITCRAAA

Cytochrome P450 2C9 = Cytochrome P450 2C9 (Homo sapiens, UniProt P11712); conditions: Potency
[19] = target: G-protein coupled receptor 55 (Homo sapiens, UniProt Q9Y2T6); assay: SAR Analysis of Selective Antagonists of GPR55 using an Image-Based Assay - Set 3. [Related pubchem assays (depositor defined):AID2058, AID2079]; type: functional
[20] = target: T5, G-protein coupled receptor 35 (Homo sapiens, UniProt Q9HC97); assay: SAR analysis of Antagonists of the GPR35 Receptor using an Image-Based Assay - Set 5. [Related pubchem assays (depositor defined):AID2058, AID2079]; type: functional
[21] = target: T5, G-protein coupled receptor 35; assay: SAR Analysis for the identification of Selective Antagonists of ERK1/2 Activity in GPR35-Overexpressing U2OS Cells - Set 2. [Related pubchem assays (depositor defined):AID2058, AID2079]; type: functional, cell-based

T5 sequence (Q9HC97 whole entry): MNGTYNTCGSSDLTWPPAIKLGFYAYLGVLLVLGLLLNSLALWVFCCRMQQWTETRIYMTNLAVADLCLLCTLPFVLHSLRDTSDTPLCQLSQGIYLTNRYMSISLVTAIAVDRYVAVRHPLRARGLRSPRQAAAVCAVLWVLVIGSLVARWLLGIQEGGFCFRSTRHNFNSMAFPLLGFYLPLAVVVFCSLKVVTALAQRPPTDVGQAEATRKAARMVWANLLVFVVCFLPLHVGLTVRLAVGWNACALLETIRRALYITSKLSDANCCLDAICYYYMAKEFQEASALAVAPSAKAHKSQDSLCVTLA
Chain of Dual specificity protein phosphatase 3 (P51452 whole entry): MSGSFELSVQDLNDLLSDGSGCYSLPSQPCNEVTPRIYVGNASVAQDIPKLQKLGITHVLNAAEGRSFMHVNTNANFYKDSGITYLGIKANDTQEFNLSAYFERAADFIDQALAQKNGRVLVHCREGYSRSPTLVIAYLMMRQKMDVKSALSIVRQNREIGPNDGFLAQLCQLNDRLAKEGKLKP
Chain of Photoreceptor-specific nuclear receptor (Q9Y5X4 whole entry): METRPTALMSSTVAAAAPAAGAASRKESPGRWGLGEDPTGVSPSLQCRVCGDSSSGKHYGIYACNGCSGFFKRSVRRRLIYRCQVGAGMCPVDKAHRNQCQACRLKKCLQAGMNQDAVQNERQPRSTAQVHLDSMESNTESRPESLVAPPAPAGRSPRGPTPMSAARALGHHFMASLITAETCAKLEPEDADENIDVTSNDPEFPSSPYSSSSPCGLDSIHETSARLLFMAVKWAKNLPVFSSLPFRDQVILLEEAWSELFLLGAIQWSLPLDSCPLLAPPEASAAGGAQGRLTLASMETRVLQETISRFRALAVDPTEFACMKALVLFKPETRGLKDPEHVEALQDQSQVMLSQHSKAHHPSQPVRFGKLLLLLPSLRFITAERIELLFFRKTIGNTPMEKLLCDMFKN
Chain of G-protein coupled receptor 55 (Q9Y2T6 whole entry): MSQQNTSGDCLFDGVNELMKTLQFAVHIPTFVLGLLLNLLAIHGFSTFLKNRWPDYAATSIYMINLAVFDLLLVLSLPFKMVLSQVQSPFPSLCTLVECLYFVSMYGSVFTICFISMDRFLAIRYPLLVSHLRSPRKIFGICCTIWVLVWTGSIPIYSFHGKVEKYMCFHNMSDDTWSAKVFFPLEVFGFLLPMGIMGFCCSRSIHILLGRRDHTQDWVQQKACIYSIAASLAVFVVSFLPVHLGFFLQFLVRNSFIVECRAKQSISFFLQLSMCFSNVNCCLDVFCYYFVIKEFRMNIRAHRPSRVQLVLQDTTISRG
Chain of Lysosomal acid glucosylceramidase (P04062 whole entry): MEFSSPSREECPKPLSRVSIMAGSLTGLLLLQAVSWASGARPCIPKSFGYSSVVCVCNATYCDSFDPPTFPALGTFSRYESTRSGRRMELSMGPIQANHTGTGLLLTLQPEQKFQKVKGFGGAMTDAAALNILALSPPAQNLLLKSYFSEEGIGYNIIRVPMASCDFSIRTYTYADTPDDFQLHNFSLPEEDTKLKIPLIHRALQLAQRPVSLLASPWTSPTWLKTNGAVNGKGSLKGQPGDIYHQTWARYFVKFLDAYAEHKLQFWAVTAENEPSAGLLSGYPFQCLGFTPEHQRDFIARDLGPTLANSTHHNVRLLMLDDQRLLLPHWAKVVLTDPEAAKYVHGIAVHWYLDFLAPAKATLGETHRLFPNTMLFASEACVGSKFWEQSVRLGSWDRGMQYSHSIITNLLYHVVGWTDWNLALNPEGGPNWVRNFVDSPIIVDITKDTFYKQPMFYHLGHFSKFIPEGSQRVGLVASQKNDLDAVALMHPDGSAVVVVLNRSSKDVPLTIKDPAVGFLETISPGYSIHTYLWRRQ
Chain of Melanin-concentrating hormone receptor 1 (Q99705 whole entry): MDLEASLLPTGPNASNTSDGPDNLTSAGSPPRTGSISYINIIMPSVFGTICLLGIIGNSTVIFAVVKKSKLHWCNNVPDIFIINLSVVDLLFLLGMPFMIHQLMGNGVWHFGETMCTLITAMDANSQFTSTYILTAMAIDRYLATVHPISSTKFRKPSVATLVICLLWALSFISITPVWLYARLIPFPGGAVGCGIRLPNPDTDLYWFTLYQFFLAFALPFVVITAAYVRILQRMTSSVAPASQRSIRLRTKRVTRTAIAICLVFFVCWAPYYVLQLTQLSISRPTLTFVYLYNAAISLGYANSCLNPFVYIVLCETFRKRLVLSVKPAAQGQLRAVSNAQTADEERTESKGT
Chain of Cytochrome P450 2C9 (P11712 whole entry): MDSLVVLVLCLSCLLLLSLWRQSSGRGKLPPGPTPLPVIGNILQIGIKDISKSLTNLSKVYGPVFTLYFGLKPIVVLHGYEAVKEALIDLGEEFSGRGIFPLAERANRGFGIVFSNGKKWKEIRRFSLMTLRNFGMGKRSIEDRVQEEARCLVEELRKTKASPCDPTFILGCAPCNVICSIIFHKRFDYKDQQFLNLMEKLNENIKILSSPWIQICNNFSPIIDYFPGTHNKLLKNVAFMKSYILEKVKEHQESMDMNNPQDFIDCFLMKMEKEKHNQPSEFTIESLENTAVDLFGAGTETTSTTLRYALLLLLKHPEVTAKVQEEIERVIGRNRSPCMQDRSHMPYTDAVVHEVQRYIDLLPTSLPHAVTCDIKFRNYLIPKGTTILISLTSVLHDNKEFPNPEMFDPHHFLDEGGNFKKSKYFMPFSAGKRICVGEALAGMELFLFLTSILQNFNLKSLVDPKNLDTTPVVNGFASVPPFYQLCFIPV
Chain of Scavenger receptor class B member 1 (Q61009 whole entry): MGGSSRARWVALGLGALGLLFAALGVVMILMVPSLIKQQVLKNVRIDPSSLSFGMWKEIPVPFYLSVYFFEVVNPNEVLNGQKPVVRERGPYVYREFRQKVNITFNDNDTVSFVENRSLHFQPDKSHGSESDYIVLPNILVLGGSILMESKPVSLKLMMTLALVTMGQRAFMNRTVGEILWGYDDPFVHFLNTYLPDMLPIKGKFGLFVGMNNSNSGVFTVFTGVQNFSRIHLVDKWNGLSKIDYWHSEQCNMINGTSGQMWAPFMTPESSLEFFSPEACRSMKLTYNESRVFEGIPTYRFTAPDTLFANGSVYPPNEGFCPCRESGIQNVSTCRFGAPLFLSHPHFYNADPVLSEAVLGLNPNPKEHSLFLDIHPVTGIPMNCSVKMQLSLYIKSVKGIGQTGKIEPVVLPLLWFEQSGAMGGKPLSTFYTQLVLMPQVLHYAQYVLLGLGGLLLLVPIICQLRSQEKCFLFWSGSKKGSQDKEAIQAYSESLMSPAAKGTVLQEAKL
Chain of Protein Rev (P05866 whole entry): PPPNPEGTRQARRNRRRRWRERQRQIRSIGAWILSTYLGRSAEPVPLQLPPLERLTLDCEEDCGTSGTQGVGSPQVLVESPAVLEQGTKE

CNCCCOc1ccc(C(C)(C)c2ccccc2)cc1
IC50 (Protein Rev): > 79.4 µM (not active)

Cc1ccc(SCC(=O)N2c3ccccc3Sc3ccccc32)cc1
EC50 (Streptokinase A): 10.9 µM (active) | EC50 (Streptococcus [1]): > 150 µM (not active) | EC50 (Streptococcus [2]): > 500 µM (not active) | EC50 [3]: > 150 µM (not active)

CN1C(=O)C(=Cc2ccc(N3CCCC3)c([N+](=O)[O-])c2)C(=O)N(C)C1=O
Ki [4]: 24.5 µM (inactive)

CCOc1ncccc1C(=O)Nc1ccc(C(=O)Nc2ccc(OC)cc2)cc1
IC50 [5]: 3.53 µM (active) | IC50 [6]: > 39.8 µM (not active)

Cc1ccc(C(=O)O)cc1N1C(=O)c2cccc3c([N+](=O)[O-])ccc(c23)C1=O
AC50 (ORF 73): 35 µM (active) | AC50 (Caspase-6): 10.3 µM (active) | IC50 (CHO): 22.4 µM (inactive) | AC50 (HeLa): 67.1 µM (active)

CCCCCOC(=O)c1[nH]c2c(c1C)C(=O)CC(c1ccco1)C2 (centres undefined)
AC50 [7]: 3.96 µM (active) | EC50 [8]: 0.198 µM (active) | EC50 [9]: 0.133 µM (active) | EC50 [10]: < 0.1 µM (active) | IC50 [11]: 0.101 µM (active) | EC50 [12]: 9.81 µM (active) | AC50 [13]: 1.49 µM (active) | EC50 (cells): 0.179 µM (active) | AC50 [14]: 33.3 µM (active) | IC50 [15]: > 80 µM (inactive)

COc1ccc(S(=O)(=O)NCC(=O)N(CC(=O)NCC2CCCO2)c2ccccc2C)cc1 (centres undefined)
EC50 [16]: > 50 µM (not active)

Cc1ccccc1CN1C(=O)c2ccccc2Sc2ccc(C(=O)NCCCN3CCOCC3)cc21
IC50 [17]: 12.1 µM (not active) | IC50 [18]: 8.23 µM (active)

CC(C)C[C@@H](CC(=O)N[C@H](CC(=O)N[C@@H]1CCNC[C@H]1C(=O)N[C@H](CC(=O)N[C@@H](CCC(=O)O)CC(=O)O)CC(C)C)C(C)C)NC(=O)[C@@H]1CNCC[C@H]1N
AC50 (Cytochrome P450 2C9): 39.8 µM (inconclusive)

COC(=O)c1cnn(-c2ccc(F)cc2F)c1/C=N/NC(=S)Nc1ccc(Cl)cc1
IC50 [19]: > 32 µM (inactive) | IC50 [20]: 0.171 µM (active) | IC50 [21]: 1.69 µM (active)
